From patent US5817756A, “Pseudo- and non-peptide bradykinin receptor antagonists” (Scios Inc., priority 1995, dated 1998) come the findings set out here.

Starred links: 1 amine or outer side, 2 acyl side, 3 side chain; linkers in the order of their positions; H or OH if unused. Non-standard residues stand in square brackets, D forms with d. Residues, ends and D or L forms follow the SMILES beside them. Oic = O=C(O)[C@@H]1C[C@@H]2CCCC[C@@H]2N1; X10 = O=C(C(/C=C/CN[*:1])Cc1ccccc1)[*:2]; X5 = O=C(/C=C/c1cccc(CN[*:1])c1)[*:2]; X11 = O=C(/C=C/C1CCCCC1CN[*:1])[*:2]; X13 = O=C(CCc1cccc(CN[*:1])c1)[*:2]; X2 = O=C(/C=C/c1ccccc1CN[*:1])[*:2]; Hyp = O=C(O)[C@@H]1C[C@@H](O)CN1; X8 = O=C(CCc1ccccc1CN[*:1])[*:2]; dTic = O=C(O)[C@H]1Cc2ccccc2CN1

The target in the first experiment is T1, human bradykinin B2 receptor (Homo sapiens, UniProt P30411).
T1 construct: The HindIII/XbaI fragment of one full-length clone, 126A, was inserted into pcDNAI neo vector; expressed in transfected cells
T1 sequence (P30411 1-391): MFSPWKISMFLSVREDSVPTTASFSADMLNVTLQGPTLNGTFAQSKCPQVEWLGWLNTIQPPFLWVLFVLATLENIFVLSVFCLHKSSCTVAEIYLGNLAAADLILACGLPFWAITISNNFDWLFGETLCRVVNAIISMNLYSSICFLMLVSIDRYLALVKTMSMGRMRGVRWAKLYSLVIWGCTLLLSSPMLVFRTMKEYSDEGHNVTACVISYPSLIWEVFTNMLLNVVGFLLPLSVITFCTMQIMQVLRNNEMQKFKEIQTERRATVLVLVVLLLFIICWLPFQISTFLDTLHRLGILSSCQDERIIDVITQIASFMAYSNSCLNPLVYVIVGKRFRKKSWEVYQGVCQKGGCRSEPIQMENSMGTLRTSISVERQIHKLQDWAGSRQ
The experiment is described as follows: Radioligand binding, H2O.2 cell membranes, 3H-NPC17731. Particulars: Table 1; 3H-NPC17731; read-out: Radioligand Binding Human 3H17731. As to the method: A human bradykinin B2 receptor was expressed in CHO/K cells. Briefly, approximately 2×10^6 plaques from a human uterus λgt10 cDNA library (Clontech Laboratories; Palo Alto, Calif.) were screened using a PCR fragment containing the coding region of the rat B2 receptor. This probe was generated by random-primed synthesis in the presence of α[^32 P]dATP. Duplicate filters were hybridized overnight at 42° C. in 1M NaCl, 50 mM Tris pH 7.5, 5× Denhardt's, 200 μg/ml salmon sperm DNA, 1% SDS, and 20% formamide. The filters were washed at 65° C. in 1× SSC and 1% SDS. Coincident positively hybridizing plaques were purified and rescreened with the same probe and stringency conditions. EcoRI fragments of positive clones were inserted into Bluescript/KS II+vector (Stratagene; La Jolla, Calif.) for sequence determination.
The nucleotide sequence of the cloned human B2 receptors was determined using double-stranded DNA and the dideoxy chain termination method. Commercially available T3 and T7 oligonucleotides (USB; Cleveland, Ohio) and synthetic 21-mer oligonucleotides (DNA/RNA Synthesizer; applied Biosystems Inc.; Palo Alto, Calif.) from both the known rat sequence and the determined human sequence were used to identify the nucleotide sequence from the 5' untranslated end to the BglII site in the 3' untranslated end of the clone.
CHO/K cells were plated in 2 ml of growth medium (Ham's F12 with 10% FBS) per 6 well plate and incubated at 37° C., 5% CO2 until they were 60% confluent. For each well, 4, 12, and 16 μg of DNA was diluted in 100 μl Opti-MEM I reduced serum medium (Gibco/BRL; Gaithersburg, Md.). 12 μl of TransfectASE reagent (Gibco/BRL) was diluted in a separate aliquot of 100 μl Opti-MEM I. The DNA and TransfecASE solutions were combined, mixed gently, and incubated at 25° C. for 15 minutes. This solution was then diluted to 1 ml with Opti-MEM I. Each well was washed twice with Opti-MEM I and 1 ml of the DNA/TransfectAse complex was added to each well. After a 5 hour incubation at 37° C. and 5% CO2, 1 ml of Ham's F12 with 20% FBS was added to each well and cells were incubated overnight. Media was replaced with growth medium and incubated for additional 24 hours.
This assay measures the ability of a bradykinin antagonist compound to compete for binding to the human B2 receptor with tritiated bradykinin or tritiated NPC17731, a bradykinin analog which is known to bind the B2 receptor and act as a bradykinin antagonist.
H2O.2 cells were grown to confluency in Ham's F12 media containing 10% FBS and 500 μg/ml Geneticin. Growth media was aspirated and the monolayer washed once with Dulbecco's PBS without Ca^++ and Mg^++. Cells were scraped in Dulbecco's PBS and centrifuged at 2,000×g for 10 minutes. Pellets were resuspended in 25 mM TES, 1 mM 1,10-phenanthroline pH 6.8 buffer and homogenized using a Ploytron at setting 5 for 10 seconds. An aliquot was taken for a protein determination using a BioRad protein assay kit. Membranes were centrifuged at 48,000×g for 10 minutes at 4° C. Pellets were resuspended in the TES buffer with 0.1% BSA and 0.014% bacitracin. 0.5 ml aliquots were frozen in liquid N2 and stored at -80° C. for up to 2 weeks.
Membranes from H2O.2 cells previously prepared were thawed at 37° C. and diluted in 25 mM TES, […] 1,10-phenanthroline pH 6.8 containing BSA and bactiracin. […] Non-specific binding was determined with 1 μM bradykinin. The tubes were incubated 90 minutes at 25° C. and the assay was terminated by rapid vacuum filtration onto Whatman GF/B filters presoaked with 0.2% PEI for 3 hours followed by 2×3 ml aliquots of ice-cold 50 mM Tris, pH 7.4. Radioactivity was counted with a Beckman scintillation counter.
Regarding `N=C(N)NCCC[C@@H](N)C(=O)N[C@@H](CCCNC(=N)N)C(=O)NCc1ccccc1/C=C/C(=O)N[C@@H](CO)C(=O)N1Cc2ccccc2C[C@@H]1C(=O)N1[C@H](C(=O)N[C@@H](CCCNC(=N)N)C(=O)O)C[C@@H]2CCCC[C@@H]21` (H-[dR]R[X2]S[dTic][Oic]R-OH), the Ki was 27 nM.

The target in another experiment is T2, bradykinin receptor, guinea pig terminal ileum homogenate (Cavia porcellus, UniProt O70526).
T2 construct: from tissue; host or cells: terminal ileum of male Hartley guinea pigs, washed membrane homogenate
T2 sequence (O70526 1-372): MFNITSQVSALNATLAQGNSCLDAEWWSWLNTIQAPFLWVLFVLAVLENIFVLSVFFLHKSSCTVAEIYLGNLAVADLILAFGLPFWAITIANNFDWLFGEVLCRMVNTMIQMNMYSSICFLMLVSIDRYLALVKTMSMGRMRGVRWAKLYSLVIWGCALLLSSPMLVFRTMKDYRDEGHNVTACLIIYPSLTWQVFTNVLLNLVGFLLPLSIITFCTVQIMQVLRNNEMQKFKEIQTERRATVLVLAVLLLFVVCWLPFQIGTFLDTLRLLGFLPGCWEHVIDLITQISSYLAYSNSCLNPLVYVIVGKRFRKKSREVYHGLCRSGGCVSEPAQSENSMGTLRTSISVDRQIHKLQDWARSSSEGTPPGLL
The experiment is described as follows: Guinea pig ileum binding of 3H-bradykinin. To be noted: Table 1, read-out: Radioligand Binding Guinea Pig. The procedure:
Binding of ^3 H-bradykinin was performed using the method of D. C. Manning, R. Vavrek, J. M. Stewart, and S. H. Snyder, J. Pharmacol. Exp. Ther., (1986) 237:504. The tissues used in the binding assay were terminal ileum from male Hartley guinea pigs (150-350 g). After dissection, tissues were placed in 20 volume of ice-cold buffer A (25 mM TES containing 0.2 g/l of 1,10-phenanthroline adjusted of pH 6.8 with ammonium hydroxide) and homogenized using a Polytron Tissumizer at setting 6 for 15 seconds. The homogenate was centrifuged at 50,000×g for 10 minutes, the supernatant discarded, and the pellet resuspended in ice-cold buffer A by homogenization with the Polytron. Each tissue was homogenized and centrifuged three times. The final pellet was resuspended in buffer A containing bovine serum albumin (1 g/l) and Bacitracin (0.14 g/l) to a final volume of 170 ml/g of the original tissue weight. The binding assay consisted of […] in 12×75 mm polypropylene tubes: 50 μl ^3 H-bradykinin (20,000 dpm, ~0.3 nM in the final assay volume), 100 μl displacing drug in buffer A, and 750 μl tissue homogenate. Each tray contained tubes, to which no drug was added to measure maximum binding and tubes to which bradykinin (1 μM final concentration) had been added, to measure […]. Specific binding accounted for 96-98% total binding. Tubes were incubated for 90 minutes at ambient temperature. The assays were terminated by filtration over Whatman GF/B glass fiber filters that had been pretreated for 2 hours with polyethyleneimine (2 g/l) using a Brandel Tissue Harvester, followed by washing with 4×1 ml aliquots of ice-cold 50 mM Tris, pH 7.4. Filters were dissolved in Ready-Safe Fluor (Beckman) for at least 90 minutes before quantitation by liquid scintillation spectrometry. Kd values were determined using saturation binding and analysis by EBDA (G. A. MacPherson, J. Pharmacol. Methods (1985) 213), followed by LIGAND (P. J. Munson, D. Rodbard, Anal. Biochem. (1980) 220). Ki values were determined using competitive analysis followed by EBDA and LIGAND.
Regarding `N=C(N)NCCC[C@@H](N)C(=O)N[C@@H](CCCNC(=N)N)C(=O)N1CCC[C@H]1C(=O)N1C[C@H](O)C[C@H]1C(=O)NC/C=C/C(Cc1ccccc1)C(=O)N[C@@H](CO)C(=O)N1Cc2ccccc2C[C@@H]1C(=O)N1[C@H](C(=O)N[C@@H](CCCNC(=N)N)C(=O)O)C[C@@H]2CCCC[C@@H]21` (some centres unmarked) (H-[dR]RP[Hyp][X10]S[dTic][Oic]R-OH), the Ki turned out to be 358 nM.
On the same count and under the same terms, as for `C[C@H](NC(=O)/C=C/c1ccccc1CNC(=O)[C@H](CCCNC(=N)N)NC(=O)[C@H](N)CCCNC(=N)N)C(=O)N1Cc2ccccc2C[C@@H]1C(=O)N1[C@H](C(=O)N[C@@H](CCCNC(=N)N)C(=O)O)C[C@@H]2CCCC[C@@H]21` (H-[dR]R[X2]A[dTic][Oic]R-OH), the figure is 278 nM; as for `N=C(N)NCCC[C@@H](N)C(=O)N[C@@H](CCCNC(=N)N)C(=O)NCc1ccccc1/C=C/C(=O)N[C@@H](Cc1ccccc1)C(=O)N[C@@H](CO)C(=O)N1Cc2ccccc2C[C@@H]1C(=O)N1[C@H](C(=O)N[C@@H](CCCNC(=N)N)C(=O)O)C[C@@H]2CCCC[C@@H]21` (H-[dR]R[X2]FS[dTic][Oic]R-OH), 1270 nM; as for `N=C(N)NCCC[C@@H](N)C(=O)N[C@@H](CCCNC(=N)N)C(=O)NCc1ccccc1/C=C/C(=O)N[C@@H](CO)C(=O)N1Cc2ccccc2C[C@@H]1C(=O)N1[C@H](C(=O)N[C@@H](CCCNC(=N)N)C(=O)O)C[C@@H]2CCCC[C@@H]21` (H-[dR]R[X2]S[dTic][Oic]R-OH), 120 ± 8 nM.
`N=C(N)NCCC[C@@H](N)C(=O)N[C@@H](CCCNC(=N)N)C(=O)NCc1cccc(/C=C/C(=O)N[C@@H](CO)C(=O)N2Cc3ccccc3C[C@@H]2C(=O)N2[C@H](C(=O)N[C@@H](CCCNC(=N)N)C(=O)O)C[C@@H]3CCCC[C@@H]32)c1` (H-[dR]R[X5]S[dTic][Oic]R-OH): the Ki is 496 nM.
As for `N=C(N)NCCC[C@@H](N)C(=O)N[C@@H](CCCNC(=N)N)C(=O)NCc1ccccc1CCC(=O)N[C@@H](CO)C(=O)N1Cc2ccccc2C[C@@H]1C(=O)N1[C@H](C(=O)N[C@@H](CCCNC(=N)N)C(=O)O)C[C@@H]2CCCC[C@@H]21` (H-[dR]R[X8]S[dTic][Oic]R-OH), the Ki is 563 nM.
On to `N=C(N)NCCC[C@@H](N)C(=O)N[C@@H](CCCNC(=N)N)C(=O)NCC1CCCCC1/C=C/C(=O)N[C@@H](CO)C(=O)N1Cc2ccccc2C[C@@H]1C(=O)N1[C@H](C(=O)N[C@@H](CCCNC(=N)N)C(=O)O)C[C@@H]2CCCC[C@@H]21` (some centres unmarked) (H-[dR]R[X11]S[dTic][Oic]R-OH), for which the Ki turned out to be 638 nM.
As to `N=C(N)NCCC[C@@H](N)C(=O)N[C@@H](CCCNC(=N)N)C(=O)NCc1cccc(CCC(=O)N[C@@H](CO)C(=O)N2Cc3ccccc3C[C@@H]2C(=O)N2[C@H](C(=O)N[C@@H](CCCNC(=N)N)C(=O)O)C[C@@H]3CCCC[C@@H]32)c1` (H-[dR]R[X13]S[dTic][Oic]R-OH), the Ki is 466 nM.

In a further experiment the test system is bradykinin-induced contraction of guinea pig ileum longitudinal muscle. Kind of experiment: Guinea pig ileum contraction assay. Type of experiment: cell-based. Particulars: Schild analysis against bradykinin. The procedure: Guinea pig intestine was removed and placed in a Petri dish containing Tyrodes solution and cut into 3-4 cm segments.
After equilibration of the tissues, appropriate volumes of bradykinin solutions were cumulatively added to the 10 ml tissue baths to increase the concentration of bradykinin in the bath step-by-step without washing out after each single dose. Higher concentrations were added only after the preceding contraction had reached a steady value. […] Antagonism of bradykinin responses to the presence of antagonist were determined by repeating the cumulative addition procedure for bradykinin after the tissue has been exposed to the antagonist for 5 minutes. Three or four different concentrations of antagonist were studied sequentially in the same preparations. Responses were expressed as a percentage of the maximum […] elicited by bradykinin in the absence of antagonist. pA2 values were calculated by Schild analysis.
As to `N=C(N)NCCC[C@@H](N)C(=O)N[C@@H](CCCNC(=N)N)C(=O)N1CCC2(CC1)C(=O)N(CC(=O)N[C@@H](CO)C(=O)N1Cc3ccccc3C[C@@H]1C(=O)N1[C@H](C(=O)N[C@@H](CCCNC(=N)N)C(=O)O)C[C@@H]3CCCC[C@@H]31)CN2c1ccccc1` [HDArgArgX[Ph]CH2 COSerDTicOicArgOH], the “Guinea Pig Ileum Contraction pA2” value was 6.7.
Regarding `N=C(N)NCCC[C@@H](N)C(=O)N[C@@H](CCCNC(=N)N)C(=O)N1CCC2(CC1)C(=O)N(CC(=O)N[C@@H](CO)C(=O)N1Cc3ccccc3C[C@@H]1C(=O)N1[C@H](C(=O)N[C@@H](CCCNC(=N)N)C(=O)O)C[C@@H]3CCCC[C@@H]31)CN2C1CCCCC1` [HDArgArgX[c-C6 H11]CH2 COSerDTicOicArgOH], the “Guinea Pig Ileum Contraction pA2” value was determined as 6.4.
